Experimental data reported in ChEMBL document CHEMBL1649478, “Comparison of tigecycline and vancomycin for treatment of experimental foreign-body infection due to methicillin-resistant Staphylococcus aureus” (Antimicrob Agents Chemother, 2009).
≈ marks a conversion by molar mass, not a printed value.

Tests used:
Staphylococcus aureus [1] = assay: Antibacterial activity against methicillin-resistant Staphylococcus aureus MRG3 by broth microdilution method; type: functional
[2] = Drug level in body fluid of Wistar rat infected with methicillin-resistant Staphylococcus aureus MRG3 at 7 mg/kg, sc BID measured on day 4 postdose; type: ADME, organism-based; design: dose 7 mg/kg, route subcutaneous; conditions: in vivo
[3] = Drug level in body fluid of Wistar rat infected with methicillin-resistant Staphylococcus aureus MRG3 at 7 mg/kg, sc BID measured on day 7 postdose; type: ADME, organism-based; design: dose 7 mg/kg, route subcutaneous; conditions: in vivo
Plasma = assay: Drug level in plasma of Wistar rat infected with methicillin-resistant Staphylococcus aureus MRG3 at 7 mg/kg, sc BID measured on day 4 postdose; type: ADME, organism-based; design: dose 7 mg/kg, route subcutaneous; conditions: in vivo
Staphylococcus aureus [4] = assay: Antibacterial activity against methicillin-resistant Staphylococcus aureus MRG3 assessed as log decrease in bacterial count at 1 to 4 ug/ml by broth microdilution method; type: functional
Staphylococcus aureus [5] = assay: Antibacterial activity against methicillin-resistant Staphylococcus aureus MRG3 infected in Wistar rat assessed as bacterial load in body fluid at 7 mg/kg, sc BID after 1 day; type: functional; conditions: route subcutaneous
Staphylococcus aureus [6] = assay: Antibacterial activity against methicillin-resistant Staphylococcus aureus MRG3 infected in Wistar rat assessed as decrease in bacterial load in body fluid at 7 mg/kg, sc BID after 8 days; type: functional; conditions: route subcutaneous
Staphylococcus aureus [7] = assay: Bactericidal activity against methicillin-resistant Staphylococcus aureus MRG3 by broth microdilution method
[8] = Cmax in body fluid of Wistar rat infected with methicillin-resistant Staphylococcus aureus MRG3 at 50 mg/kg, sc measured on day 4 postdose; type: ADME, organism-based; design: dose 50 mg/kg, route subcutaneous
[9] = Cmin in body fluid of Wistar rat infected with methicillin-resistant Staphylococcus aureus MRG3 at 50 mg/kg, sc measured on day 4 postdose; type: ADME, organism-based; design: dose 50 mg/kg, route subcutaneous; conditions: in vivo
Staphylococcus aureus [10] = assay: Antibacterial activity against methicillin-resistant Staphylococcus aureus MRG3 infected in Wistar rat assessed as bacterial load in body fluid at 50 mg/kg, sc after 1 day; type: functional; conditions: route subcutaneous
Staphylococcus aureus [11] = assay: Antibacterial activity against methicillin-resistant Staphylococcus aureus MRG3 infected in Wistar rat assessed as decrease in bacterial load in body fluid at 50 mg/kg, sc after 8 days; type: functional; conditions: route subcutaneous

Structure (SMILES)	MIC (Staphylococcus aureus [1]) [µg/mL]	Drug uptake [2] [µg/mL]	Drug uptake [3] [µg/mL]	Drug uptake (Plasma) [µg/mL]	log10CFU/ml (Staphylococcus aureus [4])	log10CFU/ml (Staphylococcus aureus [5])	log10CFU/ml (Staphylococcus aureus [6])	MBC (Staphylococcus aureus [7]) [µg/mL]	Cmax [8] [ng/mL]	Cmin [9] [ng/mL]	log10CFU/ml (Staphylococcus aureus [10])	log10CFU/ml (Staphylococcus aureus [11])
CN(C)c1cc(NC(=O)CNC(C)(C)C)c(O)c2c1C[C@H]1C[C@H]3[C@H](N(C)C)C(O)=C(C(N)=O)C(=O)[C@@]3(O)C(O)=C1C2=O [TIGECYCLINE]	0.5 (≈ 0.854 µM)	0.39	0.33	1.87	2	6.92	0.62					
CN[C@H](CC(C)C)C(=O)N[C@H]1C(=O)N[C@@H](CC(N)=O)C(=O)N[C@H]2C(=O)N[C@H]3C(=O)N[C@H](C(=O)N[C@H](C(=O)O)c4cc(O)cc(O)c4-c4cc3ccc4O)[C@H](O)c3ccc(c(Cl)c3)Oc3cc2cc(c3O[C@@H]2O[C@H](CO)[C@@H](O)[C@H](O)[C@H]2O[C@H]2C[C@](C)(N)[C@H](O)[C@H](C)O2)Oc2ccc(cc2Cl)[C@H]1O [VANCOMYCIN]								2 (≈ 1.38 µM)	12000	2000	6.7	0.76
